Converted amounts (≈) assume the structure as drawn.
Tests used:
Type in all cases: cell-based
[1] = test system: ampicillin-sensitive E. coli strain; experiment: incubation with increasing doses of antibiotic, lysed/non-lysed cells normalized by OD 600 (persisters); details: 60 minutes; for Lysed Cells Relative / Non-lysed Cells Relative: normalized by OD 600
[2] = test system: ampicillin-sensitive E. coli strain; experiment: microgranular-fibrillar background in microgels stained with SYBR Gold (Example 8); details: 32 μg/mL, 60 minutes
Procedure: The experiment was conducted with a strain of ampicillin-sensitive E. coli and a strain of imipenem-sensitive A. baumanii. The first strain was incubated with 32 μg/mL ampicillin and the second strain with 0.76 μg/mL imipenem for 60 minutes in Mueller-Hinton liquid medium at 37° C. under stirring. After incubation, each culture with the cells was included in microgels on the slide. A microgel containing the antibiotic-free control culture, and 2 microgels containing the culture treated with antibiotic were placed on each slide. The size of each microgel corresponds to a 18×18 mm slide cover. The microgels on some slides were washed in a proteinase K buffer (1% SDS, 2 mM EDTA) and the microgels on other slides were washed in a DNAase I buffer (20 mM Tris-HCl, pH 8.3, 2 mM MgCl2). In the former, one of the microgels containing the culture treated with ampicillin was incubated only with a proteinase K buffer and the other microgel containing the culture treated with ampicillin was incubated with 5 μl of 2 mg/mL proteinase K, in the buffer thereof. In the slides washed with a DNAase I buffer, one of the microgels containing the culture treated with ampicillin was incubated only with a DNAase I buffer and the other microgel containing the culture treated with ampicillin was incubated with 5 μl of 2.5 U DNAase I, in the buffer thereof. […]

[3] = test system: Enterococcus faecalis, ampicillin-sensitive and benzylpenicillin-resistant strain; experiment: MIC by microdilution and/or E-test
Excerpt: (§1) The strains and the antibiotics used were: • Gram+ • Enterococcus faecalis.
(§2) The doses of antibiotic applied were 0, the MIC determined in the Microbiology Laboratory by means of the microdilution and/or E-test technique, and those of the cutoff points of sensitivity and resistance indicated by the Clinical and Laboratory Standards Institute (CLSI) for each strain. A dose 10 times higher than the MIC was also used.

[4] = test system: Enterococcus faecium, ampicillin- and benzylpenicillin-resistant strain; experiment: MIC by microdilution and/or E-test
Excerpt: as §1, §2

[5] = test system: Enterococcus faecalis, ampicillin-sensitive and benzylpenicillin-resistant strain; experiment: technique for evaluating cell wall integrity (lysis solution, nucleoid release, fluorescence microscopy); details: 60 minutes
Procedure: (§3) Different bacterial strains grown on a dish with Mueller-Hinton medium for 24 hours were subsequently exposed to a β-lactam antibiotic for 60 minutes in Mueller-Hinton liquid medium at 37° C., under stirring, and were finally processed by means of the technique for evaluating cell wall integrity according to the present invention.
as §2

[6] = test system: Enterococcus faecium, ampicillin- and benzylpenicillin-resistant strain; experiment: as above; details: 320 μg/mL, 60 minutes
Procedure: as §3, §2

[7] = test system: Escherichia coli, ampicillin- and ceftazidime-resistant strain; experiment: as above; details: 60 minutes
Procedure: as §3, §2

[8] = test system: Escherichia coli, ceftazidime-sensitive strain with intermediate sensitivity to ampicillin; experiment: as above; details: 60 minutes
Procedure: as §3, §2

## CC1(C)S[C@@H]2[C@H](NC(=O)[C@H](N)c3ccccc3)C(=O)N2[C@H]1C(=O)O [ampicillin]
[1]; dose 2 μg/mL
  Lysed Cells %: 90.3%
  Non-lysed Cells %: 9.7%
  OD600 (ODinitial = 0.1): 0.323
  RELATIVE OD600 %: 77.6%
  Lysed Cells Relative: 70.1
  Non-lysed Cells Relative: 7.5
[1]; dose 8 μg/mL
  Lysed Cells %: 70.6%
  Non-lysed Cells %: 29.3%
  OD600 (ODinitial = 0.1): 0.120
  RELATIVE OD600 %: 28.8%
  Lysed Cells Relative: 20.4
  Non-lysed Cells Relative: 8.5
[1]; dose 16 μg/mL
  Lysed Cells %: 37.5%
  Non-lysed Cells %: 62.5%
  OD600 (ODinitial = 0.1): 0.050
  RELATIVE OD600 %: 12.0%
  Lysed Cells Relative: 4.5
  Non-lysed Cells Relative: 7.5
[1]; dose 32 μg/mL
  Lysed Cells %: 22.5%
  Non-lysed Cells %: 77.5%
  OD600 (ODinitial = 0.1): 0.027
  RELATIVE OD600 %: 6.5%
  Lysed Cells Relative: 1.5
  Non-lysed Cells Relative: 5.0
[1]; dose 160 μg/mL
  Lysed Cells %: 15.0%
  Non-lysed Cells %: 85.0%
  OD600 (ODinitial = 0.1): 0.024
  RELATIVE OD600 %: 5.8%
  Lysed Cells Relative: 0.9
  Non-lysed Cells Relative: 4.9
[1]; over all increasing doses, according to relative OD 600
  relative proportion of non-lysed cells: 5-8.5
[2]
  microgranular-fibrillar background in the preparation: showed the background
[3]
  MIC: 4 µg/mL (≈ 11.4 µM)
[4]
  MIC: > 32 µg/mL
[5]; 4 μg/mL (MIC)
  background of extracellular DNA fragments: subtle background
  cells lysed with fragmented DNA: 12%
  heavily lysed cells: 35%
  moderately lysed cells: 25%
  non-lysed cells: 28%
[5]; 40 μg/mL
  background of extracellular DNA fragments: very faint
  cells lysed with fragmented DNA nucleoid: 2%
  cells with a large lysis halo: 20%
  cells with a small halo: 15%
  non-lysed cells: 63%
[6]
  background of extracellular DNA fragments: subtle background
  cells with a small halo: 2%
  heavily lysed cells: 7.5%
  lysed cells with nucleoid with fragmented DNA: 1%
  non-lysed cells: 89%
[7]; 256 μg/mL
  background of extracellular DNA fragments: without background
  cells lysed with nucleoid with fragmented DNA: 1%
  lysed cells: 0.5%
[7]; 2,560 μg/mL
  background of extracellular DNA fragments: subtle background
  cells lysed with nucleoid with fragmented DNA: 1.5%
  empty capsules: 4%
  heavily lysed cells: 13%
  moderately lysed cells: 5%
[8]; 8 μg/mL
  background of extracellular DNA fragments: extensive background
  cells lysed with nucleoid with fragmented DNA: 9%
  heavily lysed cells: 55%
[8]; 16 μg/mL (MIC)
  empty capsules: 22.6
  lysed cells with a large halo: 60.4%
  lysed cells with nucleoid with fragmented DNA: 5.7%
  non-lysed cells: 11.3%
[8]; 20 μg/mL
  cells with a large halo: 47.3%
  empty capsules: 31.2%
  lysed cells with nucleoid with fragmented DNA: 8.6%
  non-lysed cells: 12.9%
[8]; 32 and 160 μg/mL
  empty capsules: 54%

From patent US9976170B2, “Method for evaluating bacterial cell wall integrity” (UNIVERSIDAD AUTONOMA DE MADRID, priority 2011, dated 2018)
